Tests used:
Format in all cases: biochemical
SYK kinase = SYK kinase (Homo sapiens, UniProt P43405); test: Inhibition assay of SYK kinase activity (ADP-Glo Kinase Assay)
Text: Inhibition assay of SYK kinase activity: the method in ADP-Glo™ Kinase Assay (Promega, V9102) was used to determine the inhibitory activity of the test compounds against SYK kinase.

JAK1 kinase = JAK1 kinase (Homo sapiens, UniProt P23458); test: Inhibition assay of JAK1 kinase activity (ADP-Glo Kinase Assay)
Text: Inhibition assay of JAK1 kinase activity: the method in ADP-Glo™ Kinase Assay (Promega, V9102) was used to determine the inhibitory activity of the test compounds against JAK1 kinase.

JAK3 kinase = target: T1, JAK3 kinase (Homo sapiens, UniProt P52333); test: Inhibition assay of JAK3 kinase activity (ADP-Glo Kinase Assay)
T1 sequence (P52333 1-1124): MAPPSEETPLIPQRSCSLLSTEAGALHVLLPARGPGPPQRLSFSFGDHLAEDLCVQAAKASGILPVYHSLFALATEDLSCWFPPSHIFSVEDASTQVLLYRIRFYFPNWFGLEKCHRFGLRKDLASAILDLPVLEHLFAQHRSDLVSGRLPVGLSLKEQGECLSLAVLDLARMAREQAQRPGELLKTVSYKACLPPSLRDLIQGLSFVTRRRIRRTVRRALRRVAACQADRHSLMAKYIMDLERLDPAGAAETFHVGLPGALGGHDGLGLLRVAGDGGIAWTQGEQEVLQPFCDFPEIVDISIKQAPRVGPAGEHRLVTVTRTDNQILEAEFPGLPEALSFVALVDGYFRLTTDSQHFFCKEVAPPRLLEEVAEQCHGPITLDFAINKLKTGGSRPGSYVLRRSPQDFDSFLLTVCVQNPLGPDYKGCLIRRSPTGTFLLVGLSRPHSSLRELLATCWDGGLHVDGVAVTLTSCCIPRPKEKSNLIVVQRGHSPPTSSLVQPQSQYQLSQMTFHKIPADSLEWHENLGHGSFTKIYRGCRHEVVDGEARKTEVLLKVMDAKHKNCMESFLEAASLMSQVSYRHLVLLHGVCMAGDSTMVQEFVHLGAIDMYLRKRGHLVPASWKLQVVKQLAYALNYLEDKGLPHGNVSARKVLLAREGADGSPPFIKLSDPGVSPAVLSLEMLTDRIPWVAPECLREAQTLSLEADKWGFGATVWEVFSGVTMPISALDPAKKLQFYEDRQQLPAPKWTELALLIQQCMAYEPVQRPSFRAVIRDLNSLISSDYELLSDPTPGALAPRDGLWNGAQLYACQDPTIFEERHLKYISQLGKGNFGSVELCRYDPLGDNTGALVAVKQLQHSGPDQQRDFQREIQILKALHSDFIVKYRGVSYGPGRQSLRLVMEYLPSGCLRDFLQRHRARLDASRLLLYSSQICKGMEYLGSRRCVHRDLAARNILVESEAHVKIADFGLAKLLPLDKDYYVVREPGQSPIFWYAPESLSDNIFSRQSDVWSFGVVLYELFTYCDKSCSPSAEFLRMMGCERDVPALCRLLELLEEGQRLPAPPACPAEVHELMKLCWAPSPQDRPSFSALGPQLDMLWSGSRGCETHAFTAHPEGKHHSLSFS
Text: Inhibition assay of JAK3 kinase activity: the method in ADP-Glo™ Kinase Assay (Promega, V9102) was used to determine the inhibitory activity of the test compounds against JAK3 kinase.

TYK2 kinase = target: T2, TYK2 kinase (Homo sapiens, UniProt P29597); test: Inhibition assay of TYK2 kinase activity (ADP-Glo Kinase Assay)
T2 construct: purchased Life Technologies PR8440C
Method in brief: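 Enzyme at 0.8 ng/mL (2-fold final) in 40 mM Tris-HCl pH 7.5, 20 mM MgCl2, 0.1 mg/mL BSA, 1 mM DTT, preincubated 10 min with compound (6 points, 10-fold dilutions from 10 μM). ATP plus polyE4Y1 then added for 60 min at room temperature. ADP-Glo luminescence read and IC50 derived.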

JAK2 kinase = JAK2 kinase (Homo sapiens, UniProt O60674); test: Inhibition assay of JAK2 kinase activity (ADP-Glo Kinase Assay)
Text: Inhibition assay of JAK2 kinase activity: the method in ADP-Glo™ Kinase Assay (Promega, V9102) was used to determine the inhibitory activity of the test compounds against JAK2 kinase.

Chain of JAK1 kinase (P23458 whole entry): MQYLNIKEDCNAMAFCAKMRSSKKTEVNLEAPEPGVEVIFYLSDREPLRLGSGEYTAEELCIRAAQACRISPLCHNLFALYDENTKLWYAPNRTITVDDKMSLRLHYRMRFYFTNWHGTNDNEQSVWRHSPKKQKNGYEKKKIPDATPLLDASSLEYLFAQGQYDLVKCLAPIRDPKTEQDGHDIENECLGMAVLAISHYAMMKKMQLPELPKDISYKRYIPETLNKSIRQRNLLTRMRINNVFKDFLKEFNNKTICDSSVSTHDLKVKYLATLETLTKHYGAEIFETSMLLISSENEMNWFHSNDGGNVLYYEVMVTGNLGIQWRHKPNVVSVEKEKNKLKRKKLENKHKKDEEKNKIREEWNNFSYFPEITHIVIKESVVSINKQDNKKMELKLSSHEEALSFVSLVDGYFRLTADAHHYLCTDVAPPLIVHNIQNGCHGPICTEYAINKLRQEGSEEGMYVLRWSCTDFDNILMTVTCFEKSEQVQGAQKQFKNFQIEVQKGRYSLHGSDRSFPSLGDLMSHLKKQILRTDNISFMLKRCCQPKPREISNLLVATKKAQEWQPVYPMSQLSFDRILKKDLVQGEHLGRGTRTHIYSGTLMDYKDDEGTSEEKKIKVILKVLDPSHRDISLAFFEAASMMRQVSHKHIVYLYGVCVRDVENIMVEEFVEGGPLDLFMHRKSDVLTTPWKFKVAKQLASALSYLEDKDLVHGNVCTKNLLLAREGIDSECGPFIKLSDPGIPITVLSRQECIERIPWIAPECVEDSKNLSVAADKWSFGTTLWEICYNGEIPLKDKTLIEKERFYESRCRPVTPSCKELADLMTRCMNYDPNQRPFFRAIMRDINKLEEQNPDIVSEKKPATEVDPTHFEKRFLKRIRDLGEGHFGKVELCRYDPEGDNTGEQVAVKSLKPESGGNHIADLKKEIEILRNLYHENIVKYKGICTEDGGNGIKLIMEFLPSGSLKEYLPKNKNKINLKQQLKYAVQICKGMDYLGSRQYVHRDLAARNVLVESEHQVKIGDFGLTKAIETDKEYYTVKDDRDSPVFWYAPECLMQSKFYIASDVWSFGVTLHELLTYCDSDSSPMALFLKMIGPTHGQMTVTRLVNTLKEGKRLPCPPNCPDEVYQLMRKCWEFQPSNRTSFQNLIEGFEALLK
T2 sequence (P29597 whole entry): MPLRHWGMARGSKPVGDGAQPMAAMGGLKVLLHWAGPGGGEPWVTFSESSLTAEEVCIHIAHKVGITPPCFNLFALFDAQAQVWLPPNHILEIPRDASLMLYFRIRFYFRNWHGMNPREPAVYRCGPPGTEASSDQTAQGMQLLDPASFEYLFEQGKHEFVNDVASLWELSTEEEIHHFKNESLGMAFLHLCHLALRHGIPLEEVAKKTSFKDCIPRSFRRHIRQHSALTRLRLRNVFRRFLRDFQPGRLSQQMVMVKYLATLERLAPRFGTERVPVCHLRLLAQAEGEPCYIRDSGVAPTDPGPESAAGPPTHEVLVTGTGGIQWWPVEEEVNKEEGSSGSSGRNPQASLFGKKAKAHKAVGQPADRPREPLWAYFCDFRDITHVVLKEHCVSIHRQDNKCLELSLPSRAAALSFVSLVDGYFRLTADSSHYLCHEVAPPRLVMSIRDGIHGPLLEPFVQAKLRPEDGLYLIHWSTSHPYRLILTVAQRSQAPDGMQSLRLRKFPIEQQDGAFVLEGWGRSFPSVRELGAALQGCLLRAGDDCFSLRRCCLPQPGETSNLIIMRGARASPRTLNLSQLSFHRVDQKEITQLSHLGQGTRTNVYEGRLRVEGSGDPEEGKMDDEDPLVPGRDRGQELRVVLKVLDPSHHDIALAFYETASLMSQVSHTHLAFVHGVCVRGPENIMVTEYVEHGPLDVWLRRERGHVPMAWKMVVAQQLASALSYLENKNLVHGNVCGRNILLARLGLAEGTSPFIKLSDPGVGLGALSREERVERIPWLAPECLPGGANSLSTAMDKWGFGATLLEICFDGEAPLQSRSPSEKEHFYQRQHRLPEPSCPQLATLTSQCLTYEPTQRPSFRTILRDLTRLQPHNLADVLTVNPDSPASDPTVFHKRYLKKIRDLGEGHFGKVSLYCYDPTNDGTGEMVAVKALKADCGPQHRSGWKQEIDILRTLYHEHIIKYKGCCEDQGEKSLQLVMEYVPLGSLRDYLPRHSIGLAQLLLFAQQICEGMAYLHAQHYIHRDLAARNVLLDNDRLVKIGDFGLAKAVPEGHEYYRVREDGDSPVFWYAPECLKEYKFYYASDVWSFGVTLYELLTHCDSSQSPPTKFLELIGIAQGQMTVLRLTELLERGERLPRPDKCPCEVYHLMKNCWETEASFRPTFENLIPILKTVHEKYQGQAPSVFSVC
Chain of JAK2 kinase (O60674 whole entry): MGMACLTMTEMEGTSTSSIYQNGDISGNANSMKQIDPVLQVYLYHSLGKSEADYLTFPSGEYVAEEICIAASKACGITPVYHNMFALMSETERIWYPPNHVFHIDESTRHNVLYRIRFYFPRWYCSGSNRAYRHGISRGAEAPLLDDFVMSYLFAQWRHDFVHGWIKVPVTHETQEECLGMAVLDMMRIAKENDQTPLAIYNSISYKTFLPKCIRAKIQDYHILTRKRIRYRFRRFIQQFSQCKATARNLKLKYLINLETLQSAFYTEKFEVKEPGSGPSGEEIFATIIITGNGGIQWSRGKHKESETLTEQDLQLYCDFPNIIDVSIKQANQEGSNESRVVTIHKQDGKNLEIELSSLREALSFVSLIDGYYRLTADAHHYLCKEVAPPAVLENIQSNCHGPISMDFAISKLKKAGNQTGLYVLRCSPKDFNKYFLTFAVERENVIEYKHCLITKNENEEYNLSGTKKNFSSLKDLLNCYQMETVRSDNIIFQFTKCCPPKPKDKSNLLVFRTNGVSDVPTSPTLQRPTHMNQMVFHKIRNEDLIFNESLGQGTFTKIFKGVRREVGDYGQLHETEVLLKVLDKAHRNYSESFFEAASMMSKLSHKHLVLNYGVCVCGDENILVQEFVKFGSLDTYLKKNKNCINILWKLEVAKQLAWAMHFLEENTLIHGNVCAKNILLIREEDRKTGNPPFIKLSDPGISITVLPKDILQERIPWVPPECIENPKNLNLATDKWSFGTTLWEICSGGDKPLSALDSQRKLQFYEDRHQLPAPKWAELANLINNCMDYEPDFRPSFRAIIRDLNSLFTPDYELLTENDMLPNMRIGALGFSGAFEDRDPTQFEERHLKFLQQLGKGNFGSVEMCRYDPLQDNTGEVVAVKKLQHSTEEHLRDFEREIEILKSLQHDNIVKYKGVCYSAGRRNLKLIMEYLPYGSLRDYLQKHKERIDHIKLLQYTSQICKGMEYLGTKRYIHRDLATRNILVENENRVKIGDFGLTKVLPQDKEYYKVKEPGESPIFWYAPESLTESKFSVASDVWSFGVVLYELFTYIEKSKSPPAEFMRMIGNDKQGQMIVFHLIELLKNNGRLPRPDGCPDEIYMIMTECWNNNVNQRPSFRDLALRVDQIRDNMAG

Row | SMILES | IC50 (SYK kinase) [nM] | IC50 (JAK1 kinase) [nM] | IC50 (JAK3 kinase) [nM] | IC50 (TYK2 kinase) [nM] | IC50 (JAK2 kinase) [nM]
1 | NC(=O)c1cnc(Nc2ccc3c(c2)NC[C@H](OCC(=O)O)CO3)nc1NC1CC1 [Example 94, 4-(cyclopropylamino)-2-(((S)-2,3,4,5-tetrahydro-3-(carboxymethoxy)benzo[b][1,4]oxazepin-7-yl)amino)pyrimidin-5-carboxamide] | 10 to 100 | < 10 | 10 to 100 | < 10 | < 10
2 | CCOCCO[C@H]1CNc2cc(Nc3ncc(C(N)=O)c(NC4CC4)n3)ccc2OC1 [Example 95, 4-(cyclopropylamino)-2-(((S)-2,3,4,5-tetrahydro-3-(2-ethoxyethoxy)benzo[b][1,4]oxazepin-7-yl)amino)pyrimidin-5-carboxamide] | 10 to 100 | < 10 | < 10 | < 10 | 10 to 100
3 | CC(C)OCCO[C@H]1CNc2cc(Nc3ncc(C(N)=O)c(NC4CC4)n3)ccc2OC1 [Example 96, 4-(cyclopropylamino)-2-(((S)-2,3,4,5-tetrahydro-3-(2-isopropoxyethoxy)benzo[b][1,4]oxazepin-7-yl)amino)pyrimidin-5-carboxamide] | 10 to 100 | < 10 | 10 to 100 | < 10 | 10 to 100
4 | NC(=O)c1cnc(Nc2ccc3c(c2)NC[C@H](OCC2CCCO2)CO3)nc1NC1CC1 (stereo partly drawn) [Example 97, 4-(cyclopropylamino)-2-(((S)-2,3,4,5-tetrahydro-3-((tetrahydrofuran-2-yl)methoxy)benzo[b][1,4]oxazepin-7-yl)amino)pyrimidin-5-carboxamide] | 10 to 100 | < 10 | 10 to 100 | < 10 | 10 to 100
5 | COCCCO[C@H]1CNc2cc(Nc3ncc(C(N)=O)c(NC4CC4)n3)ccc2OC1 [Example 98, 4-(cyclopropylamino)-2-(((S)-2,3,4,5-tetrahydro-3-(3-methoxypropoxy)benzo[b][1,4]oxazepin-7-yl)amino)pyrimidin-5-carboxamide] | 10 to 100 | < 10 | 10 to 100 | < 10 | 10 to 100
6 | CC1(CO[C@H]2CNc3cc(Nc4ncc(C(N)=O)c(NC5CC5)n4)ccc3OC2)COC1 [Example 101, 4-(cyclopropylamino)-2-(((S)-2,3,4,5-tetrahydro-3-((3-methyloxetan-3-yl)methoxy)benzo[b][1,4]oxazepin-7-yl)amino)pyrimidin-5-carboxamide] | 10 to 100 | < 10 | 10 to 100 | < 10 | 10 to 100
